This is an account of results in PubChem BioAssay AID192 (DTP/NCI, 2004).

The structures appear in SMILES notation. Where “and” joins values, the source holds several entries; their conditions need not be identical. Identical values can stand only once. Inconclusive results and toxic doses are left out.

For the experiment, the system named is BDF1 mice, B16 melanoma ip, median survival T/C. The experiment in a line: NCI In Vivo Anticancer Drug Screen. Data for tumor model B16 Melanoma (intraperitoneal) in B6D2F1 (BDF1) mice. The conditions noted are these: endpoint: median survival time, higher = longer survival. Put shortly:
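Antitumor activity is assessed in mice bearing a transplanted tumor, with survival or tumor size compared against vehicle-dosed controls and expressed as T/C.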

The mark [1] stands for this setting: dose: 0.75 mg/kg/injection, schedule: Q01DX009 (ip), vehicle: Klucel (hydroxypropylcellulose) (HPC).
[2] abbreviates: dose: 1.5 mg/kg/injection, schedule: Q01DX009 (ip), vehicle: Klucel (hydroxypropylcellulose) (HPC).
The mark [3] stands for this setting: dose: 100.0 mg/kg/injection, schedule: Q01DX009 (ip), vehicle: Klucel (hydroxypropylcellulose) (HPC).
Where [4] appears, read: dose: 12.5 mg/kg/injection, schedule: Q01DX009 (ip), vehicle: Klucel (hydroxypropylcellulose) (HPC).
Setting [5] is: dose: 25.0 mg/kg/injection, schedule: Q01DX009 (ip), vehicle: Klucel (hydroxypropylcellulose) (HPC).
[6] abbreviates: dose: 50.0 mg/kg/injection, schedule: Q01DX009 (ip), vehicle: Klucel (hydroxypropylcellulose) (HPC).

Consider `CC[C@]12CN3CCc4c([nH]c5ccccc45)[C@@](C(=O)OC)(c4cc5c(cc4OC)N(C)[C@H]4[C@@](O)(C(=O)OC)[C@H](OC(C)=O)[C@]6(CC)C=CCN7CC[C@]54[C@@H]76)CC(C3)[C@H]1O2` (stereo not given in full), for which the T/C by setting is: (dose: 0.05 mg/kg/injection, schedule: Q01DX009 (ip), vehicle: saline) 106 % of control; (dose: 0.1 mg/kg/injection, schedule: Q01DX009 (ip), vehicle: saline) 101 % of control; (dose: 0.2 mg/kg/injection, schedule: Q01DX009 (ip), vehicle: saline) 97 % of control; (dose: 0.4 mg/kg/injection, schedule: Q01DX009 (ip), vehicle: saline) 113 % of control; under setting [1], 107 % of control; (dose: 0.75 mg/kg/injection, schedule: Q01DX009 (ip), vehicle: saline) 90 % of control. In addition, the T/C is 116 % of control (dose: 0.8 mg/kg/injection, schedule: Q01DX009 (ip), vehicle: saline); 115 % of control under setting [2]; 102 % of control (dose: 1.5 mg/kg/injection, schedule: Q04DX003 (ip), vehicle: saline); 113 % of control (dose: 1.6 mg/kg/injection, schedule: Q01DX009 (ip), vehicle: saline); 187 % of control (dose: 3.0 mg/kg/injection, schedule: Q01DX009 (ip), vehicle: saline); 111 % of control (dose: 3.0 mg/kg/injection, schedule: Q04DX003 (ip), vehicle: saline). The T/C (dose: 3.2 mg/kg/injection, schedule: Q01DX009 (ip), vehicle: saline) is 162 % of control; the T/C (dose: 4.0 mg/kg/injection, schedule: Q01DX009 (ip), vehicle: saline) is 175 % of control and 202 % of control; the T/C (dose: 6.0 mg/kg/injection, schedule: Q01DX009 (ip), vehicle: saline) was 221 % of control [middle of 4 runs]; the T/C (dose: 6.4 mg/kg/injection, schedule: Q01DX009 (ip), vehicle: saline) was 157 % of control; the T/C (dose: 9.0 mg/kg/injection, schedule: Q01DX009 (ip), vehicle: saline) is 212 % of control and 248 % of control; the T/C (dose: 12.0 mg/kg/injection, schedule: Q01DX009 (ip), vehicle: Klucel (hydroxypropylcellulose) (HPC)) was 168 % of control. For the same compound, the T/C by setting is: (dose: 12.0 mg/kg/injection, schedule: Q01DX009 (ip), vehicle: saline) 161 % of control; (dose: 12.0 mg/kg/injection, schedule: Q04DX003 (ip), vehicle: saline) 152 % of control; (dose: 12.8 mg/kg/injection, schedule: Q01DX009 (ip), vehicle: saline) 169 % of control.

For the compound `CN1N=C(N)c2cn(C3OC(COP(=O)(O)O)C(O)C3O)c3ncnc1c23` (stereo not given), the T/C was 89 % of control and 92 % of control (dose: 6.25 mg/kg/injection, schedule: Q01DX009 (ip), vehicle: water); 90 % of control (dose: 12.5 mg/kg/injection, schedule: Q01DX009 (ip), vehicle: water); 93 % of control (dose: 25.0 mg/kg/injection, schedule: Q01DX009 (ip), vehicle: water); 96 % of control (dose: 50.0 mg/kg/injection, schedule: Q01DX009 (ip), vehicle: water); 88 % of control (dose: 100.0 mg/kg/injection, schedule: Q01DX009 (ip), vehicle: water).

For the compound `COC1=CC(=O)N(C(=O)C2CSC(C(CO)NC(=O)c3csc(/C=N/O)n3)=N2)C1` (stereo not given), the T/C was 97 % of control under setting [3] and 106 % of control (dose: 400.0 mg/kg/injection, schedule: Q01DX009 (ip), vehicle: Klucel (hydroxypropylcellulose) (HPC)).

On to `C[CH2][Pb]([CH2]C)([CH2]C)[O]C(=O)CBr`, for which the T/C is 100 % of control under setting [1]; 112 % of control under setting [2]; 105 % of control and 113 % of control (dose: 3.0 mg/kg/injection, schedule: Q01DX009 (ip), vehicle: Klucel (hydroxypropylcellulose) (HPC)).

`COc1cc2c3cc1Oc1c(O)c(OC)cc4c1[C@H](Cc1ccc(cc1)Oc1cc(ccc1O)C[C@H]3N(C)CC2)N(C)CC4`: the T/C was 108 % of control (dose: 10.0 mg/kg/injection, schedule: Q01DX009 (ip), vehicle: water); 114 % of control (dose: 20.0 mg/kg/injection, schedule: Q01DX009 (ip), vehicle: water); 102 % of control and 113 % of control (dose: 40.0 mg/kg/injection, schedule: Q01DX009 (ip), vehicle: water); 118 % of control (dose: 50.0 mg/kg/injection, schedule: Q01DX009 (ip), vehicle: saline with Tween-80); 112 % of control (dose: 75.0 mg/kg/injection, schedule: Q01DX009 (ip), vehicle: saline with Tween-80); 88 % of control and 114 % of control (dose: 80.0 mg/kg/injection, schedule: Q01DX009 (ip), vehicle: water). Moreover, the T/C runs as follows: (dose: 100.0 mg/kg/injection, schedule: Q01DX009 (ip), vehicle: saline with Tween-80) 118 % of control; (dose: 150.0 mg/kg/injection, schedule: Q01DX009 (ip), vehicle: saline with Tween-80) 119 % of control.

As for `CC(C)CCCCCCCCCCCCC(=O)NCC(=O)NC1C(O)C(O)C(Nc2ncnc3nc[nH]c23)OC1C(O)CO` (stereo not given), the T/C by setting is: (dose: 0.25 mg/kg/injection, schedule: Q01DX009 (ip), vehicle: Klucel (hydroxypropylcellulose) (HPC)) 114 % of control; (dose: 1.0 mg/kg/injection, schedule: Q01DX009 (ip), vehicle: saline) 151 % of control; (dose: 62.5 micrograms/kg/injection, schedule: Q01DX009 (ip), vehicle: saline) 98 % of control; (dose: 125.0 micrograms/kg/injection, schedule: Q01DX009 (ip), vehicle: saline) 98 % of control; (dose: 250.0 micrograms/kg/injection, schedule: Q01DX009 (ip), vehicle: saline) 98 % of control; (dose: 500.0 micrograms/kg/injection, schedule: Q01DX009 (ip), vehicle: saline) 107 % of control.

With `CCCCCCCCCCCC(=O)Nc1ccccc1`, the T/C by setting is: under setting [4], 105 % of control; under setting [5], 90 % of control; under setting [6], 92 % of control.

As for `COCC(=O)CC(C)=O`, the T/C is 122 % of control (dose: 75.0 mg/kg/injection, schedule: Q01DX009 (ip), vehicle: Klucel (hydroxypropylcellulose) (HPC)); 113 % of control (dose: 150.0 mg/kg/injection, schedule: Q01DX009 (ip), vehicle: Klucel (hydroxypropylcellulose) (HPC)); 105 % of control (dose: 300.0 mg/kg/injection, schedule: Q01DX009 (ip), vehicle: Klucel (hydroxypropylcellulose) (HPC)).

As to `O=C(O)c1[nH]c(=O)[nH]c(=O)c1N1CCCCC1`, the T/C is 110 % of control (dose: 25.0 mg/kg/injection, schedule: Q04DX003 (ip), vehicle: Klucel (hydroxypropylcellulose) (HPC)) and 86 % of control (dose: 50.0 mg/kg/injection, schedule: Q04DX003 (ip), vehicle: Klucel (hydroxypropylcellulose) (HPC)).

On to `COc1ccccc1NC(=O)Nc1cccc(Cl)c1`, for which the T/C by setting is: (dose: 6.25 mg/kg/injection, schedule: Q01DX009 (ip), vehicle: saline with Tween-80) 105 % of control; (dose: 12.5 mg/kg/injection, schedule: Q01DX009 (ip), vehicle: saline with Tween-80) 97 % of control; (dose: 25.0 mg/kg/injection, schedule: Q01DX009 (ip), vehicle: saline with Tween-80) 100 % of control.

Take `ClC(Cl)=[C](Cl)[Hg][C](Cl)=C(Cl)Cl`: the T/C is 120 % of control (dose: 3.13 mg/kg/injection, schedule: Q01DX009 (ip), vehicle: Klucel (hydroxypropylcellulose) (HPC)); 99 % of control (dose: 6.25 mg/kg/injection, schedule: Q01DX009 (ip), vehicle: Klucel (hydroxypropylcellulose) (HPC)); 92 % of control under setting [4].

For the compound `COc1cc(O)c2c(c1)C(=O)c1cc3c(c(O)c1C2=O)C(O)C(OC)C(C)(O)C3=O` (stereo not given), the T/C reads like this: under setting [5], 95 % of control; under setting [6], 88 % of control.

Turning to `CC(=O)CC(=O)Nc1cc(Cl)ccc1C`, the T/C was 105 % of control under setting [6]; 92 % of control under setting [3]; 94 % of control (dose: 200.0 mg/kg/injection, schedule: Q01DX009 (ip), vehicle: Klucel (hydroxypropylcellulose) (HPC)).

On to `COC(=O)[C@@]12OC[C@]34[C@H]([C@@H](O)[C@@H]1O)[C@@]1(C)C=C(OC5OC(CO)C(O)C(O)C5O)C(=O)C(C)[C@@H]1C[C@H]3OC(=O)[C@H](OC(=O)C=C(C)C)[C@@H]24` (stereo not given in full), for which the T/C is 108 % of control (dose: 0.25 mg/kg/injection, schedule: Q01DX009 (ip), vehicle: saline + alcohol); 108 % of control (dose: 0.5 mg/kg/injection, schedule: Q01DX009 (ip), vehicle: saline + alcohol); 108 % of control (dose: 1.0 mg/kg/injection, schedule: Q01DX009 (ip), vehicle: saline + alcohol); 105 % of control (dose: 2.0 mg/kg/injection, schedule: Q01DX009 (ip), vehicle: saline + alcohol); 113 % of control (dose: 4.0 mg/kg/injection, schedule: Q01DX009 (ip), vehicle: saline + alcohol); 103 % of control (dose: 8.0 mg/kg/injection, schedule: Q01DX009 (ip), vehicle: saline + alcohol).
